In ChEMBL document CHEMBL1201862, “PubChem BioAssay data set” (2004):
Activity calls are given as the source filed them.

Experiments:
[1] = target: Sphingosine 1-phosphate receptor 2 (Homo sapiens, UniProt O95136); experiment: Dose Response Cell-Based Assay for Agonists of the Sphingosine 1-Phosphate Receptor 2 (S1P2): Purchased Analogues. [Related pubchem assays: 1192, 373, 439 ]; format: functional
[2] = target: Sphingosine 1-phosphate receptor 3 (Homo sapiens, UniProt Q99500); experiment: Dose Response Cell-Based Assay for Agonists of the Sphingosine 1-Phosphate Receptor 3 (S1P3): Purchased Analogues. [Related pubchem assays: 373, 439 ]; format: functional
Sequence of Sphingosine 1-phosphate receptor 3 (Q99500 whole entry): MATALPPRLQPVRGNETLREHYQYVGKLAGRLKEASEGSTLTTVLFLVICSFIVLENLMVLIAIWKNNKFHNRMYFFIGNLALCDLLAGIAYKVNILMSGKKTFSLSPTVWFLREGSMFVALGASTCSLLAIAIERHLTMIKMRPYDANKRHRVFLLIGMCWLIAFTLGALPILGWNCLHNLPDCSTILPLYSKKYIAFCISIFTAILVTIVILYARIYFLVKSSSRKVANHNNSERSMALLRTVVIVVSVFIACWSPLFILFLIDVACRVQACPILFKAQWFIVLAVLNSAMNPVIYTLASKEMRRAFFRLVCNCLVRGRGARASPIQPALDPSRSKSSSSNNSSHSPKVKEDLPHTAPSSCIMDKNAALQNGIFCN

[3] = target: Sphingosine 1-phosphate receptor 1 (Homo sapiens, UniProt P21453); experiment: Dose Response Cell-Based Assay for Agonists of the Sphingosine 1-Phosphate Receptor 1 (S1P1): Purchased Analogues. [Related pubchem assays: 1192, 373, 439 ]; format: functional
Sequence of Sphingosine 1-phosphate receptor 1 (P21453 whole entry): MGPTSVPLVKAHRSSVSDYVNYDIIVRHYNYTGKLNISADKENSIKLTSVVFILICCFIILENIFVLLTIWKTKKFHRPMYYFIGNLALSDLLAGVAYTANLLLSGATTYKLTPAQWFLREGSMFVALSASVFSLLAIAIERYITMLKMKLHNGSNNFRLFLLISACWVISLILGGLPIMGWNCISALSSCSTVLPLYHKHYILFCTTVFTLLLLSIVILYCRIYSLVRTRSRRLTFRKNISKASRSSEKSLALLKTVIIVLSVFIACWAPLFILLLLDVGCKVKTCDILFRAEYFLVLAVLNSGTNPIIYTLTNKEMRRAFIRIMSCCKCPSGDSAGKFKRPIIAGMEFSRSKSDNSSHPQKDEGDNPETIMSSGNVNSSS

Bcl-2-like protein 10 = target: T1, Bcl-2-like protein 10 (Homo sapiens, UniProt Q9HD36); experiment: Biochemical TR3 FP assay of Bcl-B inhibitor potency, EC50 (AID 1243); format: functional
T1 sequence (Q9HD36 whole entry): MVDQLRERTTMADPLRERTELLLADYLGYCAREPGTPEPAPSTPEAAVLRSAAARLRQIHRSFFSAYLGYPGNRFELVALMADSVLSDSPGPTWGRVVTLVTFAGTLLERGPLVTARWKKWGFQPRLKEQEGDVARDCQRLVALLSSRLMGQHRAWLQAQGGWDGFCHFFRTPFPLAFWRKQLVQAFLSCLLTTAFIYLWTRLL

[4] = target: T2, Microphthalmia-associated transcription factor (Homo sapiens, UniProt O75030); experiment: TRPM1 promoter luciferase signal decrease, dose response, MITF inhibitor project, cell-based, SK-MEL-5, cherry-picked, set 3 (AID 493073); format: functional
T2 sequence (O75030 whole entry): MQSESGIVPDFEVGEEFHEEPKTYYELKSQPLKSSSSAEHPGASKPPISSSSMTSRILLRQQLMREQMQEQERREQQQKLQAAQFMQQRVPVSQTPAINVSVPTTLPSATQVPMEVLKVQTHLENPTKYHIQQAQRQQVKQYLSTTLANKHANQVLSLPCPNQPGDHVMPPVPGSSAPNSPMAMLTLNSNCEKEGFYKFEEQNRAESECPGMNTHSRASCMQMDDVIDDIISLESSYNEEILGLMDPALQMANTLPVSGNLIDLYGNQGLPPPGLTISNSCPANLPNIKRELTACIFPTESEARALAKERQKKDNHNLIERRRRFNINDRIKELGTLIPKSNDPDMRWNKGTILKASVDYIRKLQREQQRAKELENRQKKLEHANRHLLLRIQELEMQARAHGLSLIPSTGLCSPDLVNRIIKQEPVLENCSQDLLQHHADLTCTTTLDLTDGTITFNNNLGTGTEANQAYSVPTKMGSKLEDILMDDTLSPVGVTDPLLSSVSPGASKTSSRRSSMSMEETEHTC

Estrogen receptor = Estrogen receptor (Homo sapiens, UniProt P03372);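 note: potency for inhibiting coactivator peptide recruitment to the receptor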
Sequence of Estrogen receptor (P03372 whole entry): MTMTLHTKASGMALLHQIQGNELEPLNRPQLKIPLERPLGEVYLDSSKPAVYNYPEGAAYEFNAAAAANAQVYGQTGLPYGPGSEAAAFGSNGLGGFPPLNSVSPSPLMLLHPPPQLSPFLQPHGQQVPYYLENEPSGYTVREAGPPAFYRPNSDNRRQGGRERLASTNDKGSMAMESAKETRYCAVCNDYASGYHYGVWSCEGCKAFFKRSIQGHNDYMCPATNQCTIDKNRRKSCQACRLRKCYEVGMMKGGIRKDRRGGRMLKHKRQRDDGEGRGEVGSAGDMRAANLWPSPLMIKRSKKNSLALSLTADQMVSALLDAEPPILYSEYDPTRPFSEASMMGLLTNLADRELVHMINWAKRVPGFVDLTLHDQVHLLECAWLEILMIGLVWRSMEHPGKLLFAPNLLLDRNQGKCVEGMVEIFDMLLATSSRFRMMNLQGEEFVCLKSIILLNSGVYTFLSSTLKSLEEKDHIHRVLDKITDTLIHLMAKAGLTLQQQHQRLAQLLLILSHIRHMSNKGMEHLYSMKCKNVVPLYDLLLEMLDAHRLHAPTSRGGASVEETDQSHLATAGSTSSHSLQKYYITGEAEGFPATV

[5] = target: T3, Adenosylmethionine-8-amino-7-oxononanoate aminotransferase (Mycobacterium tuberculosis, UniProt P9WQ81); experiment: Mycobacterium tuberculosis BioA enzyme inhibitor Measured in Biochemical System Using Plate Reader - 2163-02_Inhibitor_Dose_CherryPick_Activity.; format: functional, Mycobacterium tuberculosis UT205
T3 sequence (P9WQ81 whole entry): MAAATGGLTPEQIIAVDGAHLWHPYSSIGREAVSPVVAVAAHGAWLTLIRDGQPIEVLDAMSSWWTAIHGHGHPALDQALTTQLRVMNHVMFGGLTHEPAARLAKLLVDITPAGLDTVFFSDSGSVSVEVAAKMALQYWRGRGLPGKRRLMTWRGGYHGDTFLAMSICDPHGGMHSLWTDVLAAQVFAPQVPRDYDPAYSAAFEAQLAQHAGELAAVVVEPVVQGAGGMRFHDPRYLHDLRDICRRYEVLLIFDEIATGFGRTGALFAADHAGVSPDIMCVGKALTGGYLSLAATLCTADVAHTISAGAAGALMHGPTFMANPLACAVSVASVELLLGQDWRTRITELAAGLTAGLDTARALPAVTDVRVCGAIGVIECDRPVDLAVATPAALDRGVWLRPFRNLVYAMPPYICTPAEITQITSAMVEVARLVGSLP

[6] = target: Potassium voltage-gated channel subfamily KQT member 2 (Rattus norvegicus, UniProt O88943, W236L); experiment: KCNQ2 channel potentiators, dose response, mechanism study for KCNQ2 potentiator project, cell-based, automated electrophysiology (AID 2603); format: functional
Sequence of Potassium voltage-gated channel subfamily KQT member 2 (O88943 whole entry W236L): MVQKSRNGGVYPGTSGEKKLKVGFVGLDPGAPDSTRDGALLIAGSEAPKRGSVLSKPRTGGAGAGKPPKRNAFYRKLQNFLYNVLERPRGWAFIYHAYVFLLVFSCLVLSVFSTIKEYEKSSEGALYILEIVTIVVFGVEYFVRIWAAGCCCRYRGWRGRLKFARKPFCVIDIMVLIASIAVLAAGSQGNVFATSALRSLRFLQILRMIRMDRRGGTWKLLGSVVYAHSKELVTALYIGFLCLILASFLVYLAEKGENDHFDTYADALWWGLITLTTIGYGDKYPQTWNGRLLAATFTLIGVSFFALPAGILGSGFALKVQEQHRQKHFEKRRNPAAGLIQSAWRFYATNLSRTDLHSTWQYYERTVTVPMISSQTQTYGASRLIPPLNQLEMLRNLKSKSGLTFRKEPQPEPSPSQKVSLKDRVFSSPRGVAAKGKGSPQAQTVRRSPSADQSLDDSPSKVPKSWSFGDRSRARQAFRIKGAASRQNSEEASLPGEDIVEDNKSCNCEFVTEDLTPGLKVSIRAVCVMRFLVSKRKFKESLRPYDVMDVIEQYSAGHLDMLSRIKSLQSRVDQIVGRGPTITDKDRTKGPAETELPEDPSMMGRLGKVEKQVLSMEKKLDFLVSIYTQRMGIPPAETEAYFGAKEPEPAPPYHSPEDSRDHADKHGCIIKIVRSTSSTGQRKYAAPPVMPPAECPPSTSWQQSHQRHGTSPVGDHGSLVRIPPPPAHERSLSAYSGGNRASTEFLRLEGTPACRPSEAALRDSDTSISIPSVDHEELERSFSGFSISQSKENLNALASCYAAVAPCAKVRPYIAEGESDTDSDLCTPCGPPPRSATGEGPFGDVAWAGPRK

Insulin-degrading enzyme = target: T4, Insulin-degrading enzyme (Homo sapiens, UniProt P14735); experiment: Dose Response: Fluorescence polarization-based cell-based high throughput dose response assay for inhibitors of insulin-degrading enzyme (IDE). [Related pubchem assays: 434962 (Primary screen (IDE inhibitors in singlicate)), 449730 (Counterscreen (Cytotoxicity in triplicate)), 435028 (Confirmation (IDE inhibitors in triplicate)), 434984 (Summary …; format: functional
T4 sequence (P14735 whole entry): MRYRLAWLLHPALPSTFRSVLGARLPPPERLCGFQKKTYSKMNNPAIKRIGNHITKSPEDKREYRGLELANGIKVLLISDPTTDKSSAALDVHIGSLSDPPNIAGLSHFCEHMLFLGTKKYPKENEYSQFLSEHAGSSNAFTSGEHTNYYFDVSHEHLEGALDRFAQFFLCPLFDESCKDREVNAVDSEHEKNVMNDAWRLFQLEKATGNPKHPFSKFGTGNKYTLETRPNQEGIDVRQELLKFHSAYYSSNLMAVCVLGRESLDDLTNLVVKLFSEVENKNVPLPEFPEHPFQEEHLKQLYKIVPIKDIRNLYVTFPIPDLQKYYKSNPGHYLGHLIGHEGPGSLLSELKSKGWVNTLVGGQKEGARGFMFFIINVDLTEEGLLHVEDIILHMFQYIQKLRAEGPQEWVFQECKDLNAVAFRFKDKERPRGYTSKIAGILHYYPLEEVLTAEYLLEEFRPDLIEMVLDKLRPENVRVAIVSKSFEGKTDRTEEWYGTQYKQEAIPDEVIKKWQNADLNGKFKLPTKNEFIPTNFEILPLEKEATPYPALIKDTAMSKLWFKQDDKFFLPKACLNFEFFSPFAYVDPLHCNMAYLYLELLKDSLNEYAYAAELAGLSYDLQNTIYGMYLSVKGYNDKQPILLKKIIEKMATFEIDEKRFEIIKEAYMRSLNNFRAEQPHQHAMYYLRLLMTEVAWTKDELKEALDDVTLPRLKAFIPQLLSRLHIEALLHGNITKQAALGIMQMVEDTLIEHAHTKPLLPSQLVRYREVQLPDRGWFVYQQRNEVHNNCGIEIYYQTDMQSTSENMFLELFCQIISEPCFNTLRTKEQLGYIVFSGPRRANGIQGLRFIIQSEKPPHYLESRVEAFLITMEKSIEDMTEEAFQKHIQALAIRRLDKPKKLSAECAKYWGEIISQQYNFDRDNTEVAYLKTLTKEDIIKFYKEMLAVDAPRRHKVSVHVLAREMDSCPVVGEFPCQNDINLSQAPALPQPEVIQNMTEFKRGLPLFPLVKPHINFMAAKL

[7] = Counterscreen for IDE inhibitors: Luminescence-based cell-based high throughput dose response assay to identify compounds that are cytotoxic to HEK cells. [Related pubchem assays: 434962 (Primary screen (IDE inhibitors in singlicate)), 449730 (Counterscreen (Cytotoxicity in triplicate)), 435028 (Confirmation (IDE inhibitors in triplicate)) …; format: functional; settings: HEK293
[8] = enhancers of respiration in Yfh1-depleted yeast, dose response, Friedreich's ataxia, plus single-dose screen (AID 1465); format: functional;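 note: yeast depleted of Yfh1p frataxin homolog grown on glycerol needing respiration; WST-1 tetrazolium dye reduction as measure of cellular dehydrogenase metabolic activity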

Sequence of Sphingosine 1-phosphate receptor 2 (O95136 whole entry): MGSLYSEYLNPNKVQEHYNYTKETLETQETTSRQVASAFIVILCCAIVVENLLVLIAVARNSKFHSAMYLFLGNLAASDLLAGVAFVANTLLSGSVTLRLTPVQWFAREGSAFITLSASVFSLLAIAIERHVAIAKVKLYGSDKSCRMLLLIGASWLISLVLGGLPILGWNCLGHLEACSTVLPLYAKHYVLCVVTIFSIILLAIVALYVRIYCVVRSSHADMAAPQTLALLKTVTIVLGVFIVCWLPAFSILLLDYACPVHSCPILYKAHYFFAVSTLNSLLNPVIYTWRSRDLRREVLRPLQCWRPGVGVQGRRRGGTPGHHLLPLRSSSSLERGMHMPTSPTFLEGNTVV

With `O=C(NC1CCCCC1)c1cc(-c2ccccc2)on1` the EC50 [1] was > 10 µM (not active), the EC50 [2] was > 50 µM (not active) and the EC50 [3] was 0.897 µM (active).
With `Cc1cc(I)c2c(c1)C1C=CCC1C(C(=O)O)N2` (stereo unspecified) the EC50 (Bcl-2-like protein 10) was 20.7 µM (active).
For `O=C(N/N=C/c1cccc(Oc2ccc([N+](=O)[O-])cc2[N+](=O)[O-])c1)c1cncc(Br)c1`, the AC50 [4] was 243 µM (active) and the IC50 (Estrogen receptor) was 27.9 µM (active).
With `O=C(Nc1cccnc1)c1ccc(Cl)c(Cl)c1` the AC50 [5] was 3.94 µM (active) and the EC50 [6] was 26.2 µM (active).
With `Cc1ccccc1N1C(=O)NC(=O)/C(=C/c2ccc(N3CCOCC3)o2)C1=O` the IC50 (Insulin-degrading enzyme) was 30.5 µM (not active), the IC50 [7] was > 55.6 µM (not active) and the EC50 [8] was > 100 µM (active).
